Test results as given in paper PMC6270420, “Antibacterial Activity of Salicylanilide 4-(Trifluoromethyl)benzoates” (Molecules, 2013).
Values after ≈ are worked out from the molar mass of the structure shown. Like-named read-outs stand apart in the source and are kept apart here.

How the values were obtained:
[1] = system: Mycobacterium tuberculosis 331/88 (H37Rv); experiment: Antimycobacterial MIC micromethod, Šula's medium; assay type: cell-based; conditions: read-out: MIC Mtb. 331/88
[2] = system: Mycobacterium avium 330/88; experiment: Antimycobacterial MIC micromethod; assay type: cell-based
[3] = system: Mycobacterium kansasii 235/80; experiment: Antimycobacterial MIC micromethod; assay type: cell-based; conditions: read-out: MIC M. kansasii 235/80
[4] = system: M. kansasii 6509/96 (clinically isolated strain); experiment: Antimycobacterial MIC micromethod; assay type: cell-based; conditions: Mycobacterium kansasii, read-out: MIC M. kansasii 6509/96
HepG2 cells = experiment: Cytotoxicity evaluation (CellTiter 96 MTS); assay type: cell-based, human; conditions: Homo sapiens, HepG2; 24 h, cytotoxicity; read-out: IC50 HepG2
Description: Seven esters and their parent salicylanilides with the most robust antimicrobial activity were tested for cytotoxicity in the human hepatocellular liver carcinoma cell line HepG2 (passages 21–24; ECACC, Salisbury, UK) using a standard colorimetric method measuring a tetrazolium salt reduction (CellTiter(R) 96 AQueous One Solution Assay, Promega G3580, Madison, WI, USA).
The cells were routinely cultured in Minimum Essentials Eagle Medium (Sigma-Aldrich, Darmstadt, Germany) supplemented with 10% foetal bovine serum (PAA; Biotech, Prague, Czech Republic), 1% of L-glutamine solution (Sigma-Aldrich), and non-essential amino acids solution (Sigma-Aldrich) in a humidified atmosphere containing 5% CO2 at 37 °C. For subculturing, the cells were harvested after trypsin/EDTA (Sigma-Aldrich) treatment at 37 °C. The cells treated with the tested substances were used as experimental groups. Untreated HepG2 cells were used as control groups.
The cells were seeded in density 1 × 10^4 cells per well in a 96-well plate with microscopic control. Next day, the cells were treated with each of the tested substances. […] The most of the tested compounds were prepared in incubation concentrations of 0.01–20 µM in triplicates. 4-(Trifluoromethyl)benzoic acid was applied in the concentrations of 10–4,000 µM in triplicates. The following types of controls were included: determination of 100% viability and 0% viability (the cells treated by 10% DMSO), no cell control and vehiculum controls. These checking samples were prepared in triplicates.
The treated cells were incubated together with controls at 37 °C for 24 h in 5% CO2 atmosphere. After this time reagent from the kit CellTiter 96 AQueous One Solution Cell Proliferation Assay was added. The CellTiter 96 assay is based on the reduction of tetrazolium salt MTS [3-(4,5-dimethylthiazol-2-yl)-5-(3-carboxymethoxyphenyl)-2-(4-sulfophenyl)-2H-tetrazolium] to water-soluble formazan dye by metabolically active cells. The reduction of the reagent is attributed to availability of NADH or NADPH. The decline in levels of these metabolically important compounds in the cell causes that the production of formazan is reduced. The tested plate was incubated for 2 h at 37 °C and 5% CO2 and after this time, the absorbance was recorded at 490 nm using a 96-well plate reader (TECAN, Infinite M200, Grödig, Austria).
The results were expressed as inhibitory concentration which is necessary to inhibit cell viability to 50% from the maximal (control) viability (IC50). A standard toxicological parameter IC50 was calculated in each of the tested substances using GraphPad Prism software (version 5.02; GraphPad Software Inc., San Diego, CA, USA).

[5] = system: Mycobacterium tuberculosis, M. avium and M. kansasii; experiment: Antimycobacterial MIC, summary over all mycobacterial strains; assay type: cell-based; conditions: at 1,000 µmol/L; mycobacteria other than M. kansasii
M. kansasii = experiment: Antimycobacterial MIC, summary for M. kansasii; assay type: cell-based; conditions: Mycobacterium kansasii, both strains; read-out: MICs towards M. kansasii
[6] = system: eight Gram-positive and Gram-negative strains; experiment: Antibacterial microdilution, summary over eight strains; assay type: cell-based; conditions: read-out: MIC, antibacterial action
Description: The in vitro antibacterial activity was assayed against eight Gram-positive and Gram-negative strains: Staphylococcus aureus CCM 4516/08, methicillin-resistant Staphylococcus aureus H 5996/08 (MRSA), Staphylococcus epidermidis H 6966/08, Enterococcus sp. J 14365/08; Escherichia coli CCM 4517, Klebsiella pneumoniae D 11750/08, ESBL-positive Klebsiella pneumoniae J 14368/08, and Pseudomonas aeruginosa CCM 1961.
The microdilution broth method modified according to standard M07-A07 in Mueller-Hinton broth (HiMedia Laboratories, Mumbai, India) adjusted to pH 7.4 (±0.2) was used. The tested compounds were dissolved in DMSO to the final concentrations ranging from […]. Benzylpenicillin (penicillin G) was used as a comparative drug. Bacterial inoculum in sterile water was prepared to match 0.5 McFarland scale ([…]). The minimum inhibitory concentrations were assayed as 90% (IC90) or higher reduction of growth when compared to the control. The determination of results was performed visually and spectrophotometrically (at 540 nm). The values of MICs were determined after 24 and 48 h of incubation in the darkness at 35 °C (±0.1) in a humid atmosphere.

O=C(O)c1ccc(C(F)(F)F)cc1 [CF3-BA, 4-(trifluoromethyl)benzoic acid, reference compound]
MIC ([1]; 336 h, 14 d): > 1000 µM | MIC ([1]; 504 h, 21 d): > 1000 µM | MIC ([2]; 330/88, 336 h, 14 d): > 1000 µM | MIC ([2]; 330/88, 504 h, 21 d): > 1000 µM | MIC ([3]; 235/80, 168 h, 7 d): 1000 µM (≈ 190 µg/mL) | MIC ([3]; 235/80, 336 h, 14 d): > 1000 µM | MIC ([3]; 235/80, 504 h, 21 d): > 1000 µM | MIC ([4]; 168 h): 250 µM (≈ 47.5 µg/mL) | MIC ([4]; 336 h, 14 d): 1000 µM (≈ 190 µg/mL) | MIC ([4]; 504 h, 21 d): 1000 µM (≈ 190 µg/mL) | IC50 (HepG2 cells): 564 µM | susceptibility of other mycobacteria [5]: completely insusceptible | MIC (M. kansasii): ≥ 250 µM | MIC [6]: > 500 µM
